The text below walks through data of US8987249B2, “Substituted 2-Aza-bicyclo[2.2.1]heptane-3-carboxylic acid (benzyl-cyano-methyl)-amides inhibitors of Cathepsin C” (Boehringer Ingelheim International GmbH, priority 2013, dated 2015).

The nature of one data set: in vitro. To be noted: human, microsomes, pH 7.6.
The target of data set [1] is recombinant human DPPI (Cathepsin C) (Homo sapiens (Human), UniProt P53634). In words: Inhibition of human DPPI (Cathepsin C). Format: biochemical. As to conditions: substrate Gly-Arg-AMC. The procedure, abridged: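 Recombinant human DPPI in MES buffer pH 6.0 (5 mM DTT, 0.1% BSA); fluorogenic substrate at 50 μM final, 30 min at room temperature, stopped with 1 μM Gly-Phe-DMK. Background-subtracted fluorescence expressed as percent of vehicle control; IC50 derived.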

Data set [2] addresses recombinant human Cathepsin K (Homo sapiens (Human), UniProt P43235). In words: Inhibition of human Cathepsin K. The class given is biochemical. To be noted: substrate Z-Gly-Pro-Arg-AMC. A digest of the protocol:
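Proenzyme activated in pH 3.5 sodium acetate for 30 min at room temperature. Enzyme (2 ng/μL final) preincubated 10 min with compound (0.1 nM–100 μM, 1% DMSO) in pH 5.5 acetate/EDTA/L-cysteine buffer, then reacted 60 min at room temperature with Z-Gly-Pro-Arg-AMC. Stopped with 1 μM E64; fluorescence Ex 360/Em 460 nm; IC50 from background-subtracted percent of vehicle control.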

Data set [3] can be described thus: Determination of metabolic stability with human liver microsomes. To be noted: pooled human liver microsomes; for half-life at 1 μM: human, pH 7.6; for In vitro stability in human liver microsome incubations t½: 1 μM test compound, 37° C., NADPH. On the technique in general: Liver microsomes are a subcellular fraction often used to study metabolism.

Chain of recombinant human DPPI (Cathepsin C) (P53634 231-394): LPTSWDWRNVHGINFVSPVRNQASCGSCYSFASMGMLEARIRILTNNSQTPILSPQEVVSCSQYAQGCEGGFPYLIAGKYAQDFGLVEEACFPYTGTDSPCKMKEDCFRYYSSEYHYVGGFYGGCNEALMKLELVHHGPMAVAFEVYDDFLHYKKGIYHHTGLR
Chain of recombinant human DPPI (Cathepsin C) (P53634 395-463): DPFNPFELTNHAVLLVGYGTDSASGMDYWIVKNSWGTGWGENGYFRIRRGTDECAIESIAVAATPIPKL
Chain of recombinant human DPPI (Cathepsin C) (P53634 25-134): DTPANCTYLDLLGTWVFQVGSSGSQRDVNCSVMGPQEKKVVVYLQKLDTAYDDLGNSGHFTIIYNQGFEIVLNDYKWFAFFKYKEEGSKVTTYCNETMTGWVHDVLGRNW
Chain of recombinant human Cathepsin K (P43235 115-329): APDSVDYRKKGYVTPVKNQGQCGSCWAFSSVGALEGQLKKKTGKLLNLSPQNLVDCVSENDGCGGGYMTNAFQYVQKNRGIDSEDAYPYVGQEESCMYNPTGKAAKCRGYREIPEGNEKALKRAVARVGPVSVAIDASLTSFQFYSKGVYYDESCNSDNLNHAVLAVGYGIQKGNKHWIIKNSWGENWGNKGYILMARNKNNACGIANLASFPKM

In the case of `CCN1CC=C(c2ccc(C[C@@H](C#N)NC(=O)[C@H]3N[C@@H]4CC[C@H]3C4)c(F)c2)CC1` [Example 320], the half-life (usually the time needed for the level to fall by half in the phase considered) at 1 μM in “in vitro” is > 2.17 h. The IC50 (commonly the concentration that gives 50% inhibition) in data set [1] is 0.0096 µM.

In “in vitro”, `N#C[C@H](Cc1ccc(C2=CCN(C3CCOC3)CC2)cc1F)NC(=O)[C@H]1N[C@@H]2CC[C@H]1C2` (stereo partly drawn) [Example 332] showed a half-life at 1 μM of 1.67 h. The IC50 is 6.2 µM in data set [2] and 0.0129 µM in data set [1].

In the case of `CN1C2CCC1CN(c1ccc(C[C@@H](C#N)NC(=O)[C@H]3N[C@@H]4CC[C@H]3C4)c(F)c1)C2` [Example 333], the half-life at 1 μM in the data set “in vitro” was > 2.17 h. Besides, the IC50 in data set [2] is 2.4 µM; in data set [1] it was 0.0153 µM.

For `N#C[C@H](Cc1ccc(C2=CC3COCCN3CC2)cc1F)NC(=O)[C@H]1N[C@@H]2CC[C@H]1C2` (stereo partly drawn) [Example 282], the half-life at 1 μM in the data set “in vitro” is > 2.17 h. The IC50 was 1.8 µM in data set [2] and 0.0037 µM in data set [1].

For `CN1CC=C(c2ccc(C[C@@H](C#N)NC(=O)[C@H]3N[C@@H]4CC[C@H]3C4)c(F)c2)CC1` [Example 223], the half-life at 1 μM in “in vitro” is > 2.17 h.

Take `CN(C)CCN1C(=O)Cc2ccc(-c3ccc(C[C@@H](C#N)NC(=O)[C@H]4N[C@@H]5CC[C@H]4C5)c(F)c3)cc21` [Example 278]: the half-life at 1 μM in “in vitro” is > 2.17 h. Also, the results for the IC50 in data set [2] and in data set [1] were 1.2 µM and 0.001 µM, respectively.

On to `CCOCc1cn(-c2ccc(C[C@@H](C#N)NC(=O)[C@H]3N[C@@H]4CC[C@H]3C4)c(F)c2)nn1` [Example 105], for which, in data set [3], the half-life at 1 μM was > 2.17 h. In addition, the results for the IC50 in data set [2] and in data set [1] were 5.2 µM and 0.025 µM, respectively.

As to `N#C[C@H](Cc1ccc(N2CC3CCN(C4CCOC4)C3C2)cc1F)NC(=O)[C@H]1N[C@@H]2CC[C@H]1C2` (stereo partly drawn) [Example 348], the “In vitro stability in human liver microsome incubations t½” value in data set [3] turned out to be 2.17 h. The values for the IC50 in data set [2] and in data set [1] were 4.3 µM and 0.0176 µM, respectively.

For the molecule `N#C[C@H](Cc1ccc(-c2cc(C(=O)N3CCn4nccc4C3)co2)cc1F)NC(=O)[C@H]1N[C@@H]2CC[C@H]1C2` [Example 240], the half-life at 1 μM in data set [3] came out at 1.83 h. The IC50 in data set [2] turned out to be 9.4 µM; in data set [1] it was 0.0061 µM.

Take `CS(=O)(=O)c1ccc(-c2ccc(C[C@@H](C#N)NC(=O)[C@H]3N[C@@H]4CC[C@H]3C4)c(F)c2)cc1F` [Example 12]: in data set [3], the half-life at 1 μM was > 2.17 h. Besides, the IC50 in data set [2] is 2.1 µM; in data set [1], 0.0019 µM.

As to `CS(=O)(=O)c1cc(-c2ccc(C[C@@H](C#N)NC(=O)[C@H]3N[C@@H]4CC[C@H]3C4)c(F)c2)ccc1C#N` [Example 14], in data set [3], the half-life at 1 μM is > 2.17 h. Also, the IC50 in data set [2] is 2.7 µM; in data set [1], 0.002 µM.

Consider `N#C[C@H](Cc1ccc(N2CCC(N3CCOCC3)CC2)cc1F)NC(=O)[C@H]1N[C@@H]2CC[C@H]1C2` [Example 193], for which, in data set [3], the half-life at 1 μM was > 2.17 h. Moreover, the values for the IC50 in data set [2] and in data set [1] were 2.2 µM and 0.0123 µM, respectively.

As to `CC(=O)N1CCC(Cn2cc(-c3ccc(C[C@@H](C#N)NC(=O)[C@H]4N[C@@H]5CC[C@H]4C5)c(F)c3)cn2)CC1` [Example 55], the half-life at 1 μM in data set [3] is > 2.17 h. Besides, the IC50 stood at 3.9 µM in data set [2] and 0.0082 µM in data set [1].

Turning to `CS(=O)(=NC#N)c1cccc(-c2ccc(C[C@@H](C#N)NC(=O)[C@H]3N[C@@H]4CC[C@H]3C4)c(F)c2)c1` (stereo partly drawn) [Example 222], the half-life at 1 μM in data set [3] was > 2.17 h. Also, the IC50 in data set [2] came to 1.7 µM; in data set [1], 0.0022 µM.

For `CC(=O)c1cn(-c2ccc(C[C@@H](C#N)NC(=O)[C@H]3N[C@@H]4CC[C@H]3C4)c(F)c2)nn1` [Example 90], the half-life at 1 μM in data set [3] is > 2.17 h. Further, the figures for the IC50 in data set [2] and in data set [1] were 3.5 µM and 0.016 µM, respectively.

For the molecule `CS(=O)(=O)c1cc(OCC(F)(F)F)cc(-c2ccc(C[C@@H](C#N)NC(=O)[C@H]3N[C@@H]4CC[C@H]3C4)c(F)c2)c1` [Example 276], the “In vitro stability in human liver microsome incubations t½” value in data set [3] was found to be 2.17 h. The 50% inhibitory concentration (IC50) in data set [2] was found to be 5.5 µM; in data set [1], 0.0141 µM.

`N#C[C@H](Cc1cc2c(=O)[nH]c3ccccc3c2cc1F)NC(=O)[C@H]1N[C@@H]2CC[C@H]1C2` [Example 322]: in data set [3], the half-life at 1 μM is > 2.17 h. The IC50 in data set [2] is 1.1 µM; in data set [1], 0.0008 µM.

As to `N#C[C@H](Cc1ccc(-c2ccc(C(=O)NC3CCOCC3)cc2)cc1F)NC(=O)[C@H]1N[C@@H]2CC[C@H]1C2` [Example 200], the half-life at 1 μM in data set [3] is > 2.17 h. Moreover, the IC50 in data set [2] came out at 3.3 µM; in data set [1], 0.0165 µM.

Take `N#CC(Cc1ccc(-c2cccc(C(N)=O)c2)cc1F)NC(=O)[C@H]1N[C@@H]2CC[C@H]1C2` (stereo partly drawn) [Example 53]: in data set [3], the half-life at 1 μM was > 2.17 h. Moreover, the IC50 came to 4.1 µM in data set [2] and 0.0079 µM in data set [1].

For `N#C[C@H](Cc1ccc(-c2cnn(C[C@@H]3CCOC3)c2)cc1F)NC(=O)[C@H]1N[C@@H]2CC[C@H]1C2` [Example 262], in data set [3], the half-life at 1 μM was > 2 h. For the same molecule, the IC50 in data set [2] stood at 2.8 µM; in data set [1], 0.0064 µM.

In the case of `N#Cc1ccc(-c2ccc(C[C@@H](C#N)NC(=O)[C@H]3N[C@H]4C[C@@H]3[C@@H]3C[C@@H]34)c(F)c2)s1` [Example 40], in data set [3], the half-life at 1 μM is > 2.17 h. Further, the IC50 in data set [2] was found to be 7.8 µM; in data set [1], 0.0051 µM.

Consider `CN1CCCN(c2ccc(C[C@@H](C#N)NC(=O)[C@H]3N[C@@H]4CC[C@H]3C4)c(F)c2)CC1` [Example 247], for which the half-life at 1 μM in data set [3] is > 2.17 h. The IC50 turned out to be 4.5 µM in data set [2] and 0.0084 µM in data set [1].

Turning to `N#C[C@H](Cc1ccc(-c2ccc3c(c2)NC(=O)C3)c(F)c1F)NC(=O)[C@H]1N[C@@H]2CC[C@H]1C2` [Example 181], the half-life at 1 μM in data set [3] was > 2.17 h. The IC50 worked out at 9.7 µM in data set [2] and 0.0086 µM in data set [1].

On to `N#CC(Cc1cc2c(=O)[nH]c3ccccc3c2cc1F)NC(=O)[C@H]1N[C@@H]2CC[C@H]1C2` (stereo partly drawn) [Example 294], for which the half-life at 1 μM in data set [3] is > 2.17 h. Also, the IC50 in data set [2] was determined as 2.2 µM; in data set [1] it was 0.0016 µM.

With `N#C[C@H](Cc1ccc(N2CCNCC2)cc1F)NC(=O)[C@H]1N[C@@H]2CC[C@H]1C2` [Example 204], in the data set “in vitro”, the half-life at 1 μM was > 2.17 h. Besides, the IC50 in data set [1] came to 0.0245 µM.

For `N#C[C@H](Cc1ccc(-c2ccc(C(N)=O)s2)cc1F)NC(=O)[C@H]1N[C@@H]2CC[C@H]1C2` [Example 236], in data set [3], the half-life at 1 μM was > 2.17 h. Further, the IC50 in data set [2] was found to be 1.7 µM; in data set [1], 0.0016 µM.

On to `CCN1CCC(c2ccc(C[C@@H](C#N)NC(=O)[C@H]3N[C@@H]4CC[C@H]3C4)c(F)c2)CC1` [Example 201], for which, in data set [3], the half-life at 1 μM was > 2.17 h. The figures for the IC50 in data set [2] and in data set [1] were 2.5 µM and 0.0201 µM, respectively.

As for `CN1CCC(C)(c2ccc(C[C@@H](C#N)NC(=O)[C@H]3N[C@@H]4CC[C@H]3C4)c(F)c2)CC1` [Example 321], in the data set “in vitro”, the half-life at 1 μM is > 2.17 h.

As to `CS(=O)(=O)c1cccc(-c2ccc(C[C@@H](C#N)NC(=O)[C@H]3N[C@@H]4CC[C@H]3C4)c(F)c2)c1` [Example 4, (1S,2S,4R)—N-[(1S)-1-cyano-2-[2-fluoro-4-(3-methylsulfonylphenyl)phenyl]ethyl]-3-azabicyclo[2.2.1]heptane-2-carboxamide], the half-life at 1 μM in data set [3] is > 2.17 h. The figures for the IC50 in data set [2] and in data set [1] were 2.6 µM and 0.0014 µM, respectively.

Turning to `CN1CC2CCC(C1)N2c1ccc(C[C@@H](C#N)NC(=O)[C@H]2N[C@@H]3CC[C@H]2C3)c(F)c1` [Example 328], in “in vitro”, the half-life at 1 μM was > 2.17 h. Also, the IC50 in data set [2] is 7.7 µM; in data set [1] it was 0.0042 µM.

Consider `CS(=O)(=O)c1ccc(-c2ccc(C[C@@H](C#N)NC(=O)[C@H]3N[C@@H]4CC[C@H]3C4)c(F)c2F)cc1` [Example 176], for which the half-life at 1 μM in data set [3] is > 2.17 h. The IC50 is 13.9 µM in data set [2] and 0.0066 µM in data set [1].

With `N#CC(Cc1ccc2c(c1)c(=O)[nH]c1c(F)c(F)ccc12)NC(=O)[C@H]1N[C@@H]2CC[C@H]1C2` (stereo partly drawn) [Example 300], the half-life at 1 μM in data set [3] is > 2.17 h. Besides, the half-inhibitory concentration (IC50) in data set [2] turned out to be 23.1 µM; in data set [1], 0.0038 µM.
